We go through 69 compounds from PubChem BioAssay AID463229 (Broad Institute, 2010).

The subject of the assay is INS-1E rat beta cells, no cytokines, CellTiter-Glo ATP, 48 h. The assay can be described thus: ATP level change in INS-1E without cytokines, dose response, counter-screen for beta-cell apoptosis protection project, INS-1E rat cells, ATP luminescence, cherry pick (AID 463229).
As to `C/C(=N/NC(=O)c1ccc(C(C)(C)C)cc1)c1ccccn1`, the concentration at half-maximal activity (AC50) is 2.1 µM.

For `O=C(C1CCC1)N1CCc2cc(S(=O)(=O)Nc3ccc4c(c3)OCCO4)ccc21`, the AC50 was 7.92 µM.

Consider `CN(C)c1ccc(-c2cc(O)c3ncccc3c2)cc1`, for which the AC50 was 26.9 µM.

`CCCCNc1c(-c2ccc(SC3CCCCC3)cc2)nc2ccccn12`: the AC50 was 5.31 µM.

For the compound `CCCCCCCCCCOC(=O)C[N+](C)(C)C/C=C(/C)Cl`, the concentration at half-maximal activity (AC50) is 16.7 µM.

For `CCc1ccc2[nH]c(=O)c(C3C(C#N)=C(N)Oc4c3ccc3cccnc43)cc2c1` (centres undefined), the AC50 was 5.4 µM.

Turning to `COc1cc(OC)c(NC2=CC(=O)C(=O)c3ccccc32)cc1Cl`, the AC50 was 8.07 µM.

With `CCCCCc1ccc(-c2cn(CN3C(=O)c4ccccc4C3=O)nn2)cc1`, the AC50 is 1.23 µM.

With `O=C(OCn1ncc(Cl)c(Cl)c1=O)c1ccccc1Cl`, the half-maximal activity concentration (AC50) is 7.84 µM.

`Cc1cc(Nc2cccc(Cl)c2)nc(NCc2ccccc2)n1`: the concentration at half-maximal activity (AC50) is 6.46 µM.

With `Oc1c(C(Nc2ccccn2)c2cccnc2)cc(Cl)c2cccnc12` (centres undefined), the AC50 is 7.48 µM.

Take `COc1ccc(N(C(=O)CCl)C(C(=O)NCCc2ccccc2)c2cccs2)cc1Cl` (centres undefined): the AC50 is 7.56 µM.

Consider `CCOC(=O)c1cnc(-n2nc(C)cc2C)nc1NC(C)c1ccccc1` (centres undefined), for which the AC50 was 13.7 µM.

As for `CN(C)CCOc1ccc(-c2c(-c3ccccc3)sc3ccccc23)cc1`, the concentration at half-maximal activity (AC50) is 12.8 µM.

On to `Cc1ccc(S(=O)(=O)NCc2ccncc2)c(C)c1C`, for which the AC50 was 3.83 µM.

With `Cc1c(Cl)c([N+](=O)[O-])nn1Cc1ccc(C(=O)N/N=C\c2cc(Cl)ccc2O)o1`, the concentration at half-maximal activity (AC50) is 6.95 µM.

`O=C(OCn1ncc(Cl)c(Cl)c1=O)c1ccc(F)cc1`: the concentration at half-maximal activity (AC50) is 7.02 µM.

As to `CCCCCCCCCCOC(=O)Cn1c(COc2ccccc2)[n+](C)c2ccccc21`, the AC50 is 4.25 µM.

Take `N#CCC(=O)N/N=C/c1cc(-c2ccccc2)n(-c2ccc(Cl)cc2)c1-c1ccccc1`: the AC50 is 2.29 µM.

In the case of `Cc1ccc(C(C)C)c(OCC(O)CN2CCc3ccccc3C2)c1` (centres undefined), the concentration at half-maximal activity (AC50) was 9.7 µM.

With `CC(C)CN(C(=O)COC(=O)C12CC3CC(CC(Cl)(C3)C1)C2)c1c(N)n(Cc2ccccc2)c(=O)[nH]c1=O`, the AC50 is 6.97 µM.

As for `Oc1c(CN2CCN(c3ccccn3)CC2)cc(Cl)c2cccnc12`, the AC50 was 5.4 µM.

On to `O=C(NC(c1ccc(Cl)cc1)c1cc(Cl)c2cccnc2c1O)c1cccnc1` (centres undefined), for which the AC50 was 6.6 µM.

Consider `Cc1sc2ncnc(N3CCN(CCOc4ccc(Cl)cc4)CC3)c2c1C`, for which the AC50 was 4.74 µM.

On to `O=C(Nc1cc(S(=O)(=O)N2CCCCC2)ccc1Cl)c1ccccc1NS(=O)(=O)c1ccc(F)cc1`, for which the AC50 is 3.66 µM.

For the compound `COc1ccc(C(=O)NC(=S)NNC(=O)c2cnccn2)cc1`, the AC50 is 5.21 µM.

Regarding `O=C(Nc1ccc(-c2nc3ccccc3o2)cc1)c1ccc(N2CCOCC2)c([N+](=O)[O-])c1`, the half-maximal activity concentration (AC50) is 5.65 µM.

On to `COCCCNC(=O)Cn1nnc(-c2ccc(NC(=O)c3cccnc3)cc2)n1`, for which the concentration at half-maximal activity (AC50) is 5.3 µM.

As to `CCCCCc1cc(=O)oc2c(C(CCN(CC)CC)c3ccc(OC)cc3)c(OC)cc(OC)c12` (centres undefined), the AC50 is 14 µM.

In the case of `Oc1ccc(CCNc2ncnc3ccc(Cl)cc23)cc1`, the half-maximal activity concentration (AC50) was 5.59 µM.

Turning to `CCC(=O)NC(c1cccs1)c1ccc2cccnc2c1O` (centres undefined), the AC50 is 3.37 µM.

Take `CCC[C@@H](CN1CCC[C@H]1CN1C(N)=NC[C@@H]1Cc1ccccc1)N1C[C@@H]([C@H](C)CC)N(CCCC2CCCC2)C1=N`: the concentration at half-maximal activity (AC50) is 7.72 µM.

Take `Nc1nc2ccccc2n1/N=C/c1ccc([N+](=O)[O-])s1`: the half-maximal activity concentration (AC50) is 7.19 µM.

Take `CCc1ccc(CN(C)C(=O)c2cc(COc3cccc4cnccc34)on2)cc1`: the AC50 is 7.91 µM.

For the compound `O=C(NNc1c(Cl)cc(Cl)cc1Cl)c1cccc([N+](=O)[O-])c1`, the AC50 is 3.08 µM.

In the case of `CCc1ccc(C(=O)NNc2cc(Cl)ccc2Cl)cc1`, the AC50 was 8 µM.

On to `O=C(NCc1ccccc1)C1=C[C@H](c2csc3ccccc23)C[C@H](OCCCCO)O1`, for which the half-maximal activity concentration (AC50) was 6.75 µM.

Turning to `Oc1ccc(N=Nc2nccs2)c(O)c1`, the AC50 is 6.64 µM.

For `CC(C)=CCc1cc2c(=O)c3c(O)c4c(cc3oc2c(O)c1O)OC(C)C4(C)C` (centres undefined), the AC50 was 7.43 µM.

As to `Cc1cccc(CSC(Nc2ccc(F)cc2)=C(C#N)C#N)c1`, the AC50 is 5.85 µM.

Consider `CCc1ccc(C2=NNC(=Nc3cccc(S(=O)(=O)N(C)C)c3)SC2)cc1`, for which the half-maximal activity concentration (AC50) was 3.66 µM.

Take `Cc1c(C(=O)N/N=C/c2c(O)ccc3ccccc23)nnn1-c1nonc1N`: the AC50 was 2.18 µM.

For the compound `Cc1ccc(NC(=S)N/N=C/c2ccc([N+](=O)[O-])s2)cc1`, the half-maximal activity concentration (AC50) is 6.79 µM.

For the compound `Cc1cccnc1Nc1nc(-c2ccccn2)cs1`, the AC50 was 2.58 µM.

In the case of `CCc1ccc(S(=O)(=O)/N=C2\C=C(Nc3ccc(C(=O)O)cc3)C(=O)c3ccccc32)cc1`, the half-maximal activity concentration (AC50) was 14.7 µM.

On to `Oc1ccc2ccccc2c1N=Nc1nccs1`, for which the AC50 is 6.54 µM.

Regarding `C[C@H]1CCC/C=C/C2C[C@H](O)CC2[C@H](O)/C=C/C(=O)O1` (some centres undefined), the AC50 was 0.94 µM.

On to `CCOC(=O)c1nc(NNC(=O)c2ccc([N+](=O)[O-])cc2)sc1C`, for which the concentration at half-maximal activity (AC50) was 7.04 µM.

On to `O=C(c1cc(-c2cccc(O)c2)on1)N1CCN(C(c2ccccc2)c2ccccc2)CC1`, for which the AC50 was 14.4 µM.

For the compound `c1ccc(-c2csc3ncnc(NCC4COc5ccccc5O4)c23)cc1` (centres undefined), the concentration at half-maximal activity (AC50) is 2.79 µM.

Take `O=C(Nc1ccc(Cl)c(Cl)c1)N1CCSC1c1ccco1` (centres undefined): the AC50 was 14.2 µM.

Consider `CC(=O)c1c(C)[nH]c(C(=O)OCC(=O)Nc2ccc(C)cc2[N+](=O)[O-])c1C`, for which the concentration at half-maximal activity (AC50) was 1.6 µM.

As to `Cc1oc2c(c1C(=O)N1CCOCC1)C(=O)c1ccccc1C2=O`, the concentration at half-maximal activity (AC50) was 8.12 µM.

On to `O=C(c1cnc(N2CCN(c3ccccn3)CC2)c2ccccc12)N1CCN(c2cccc(Cl)c2)CC1`, for which the AC50 was 7.59 µM.

Turning to `Cc1ccc(NC(=O)Cc2nn(C)c(=O)c3ccccc23)cc1F`, the AC50 was 6.97 µM.

Turning to `Clc1ccc(OCCN2CCN(c3ncnc4sccc34)CC2)cc1`, the half-maximal activity concentration (AC50) is 0.726 µM.

Turning to `C/C(=N\NC(=O)c1cc(-c2cccnc2)nc2ccccc12)c1ccc(O)cc1O`, the half-maximal activity concentration (AC50) was 2.45 µM.

As for `Cc1cnc(NC(=O)CN2CCN(c3ccccn3)CC2)s1`, the AC50 was 4.35 µM.

As to `COc1ccc(C(C)NCCC(c2ccc(OC(C)C)cc2)c2ccccc2OC)cc1` (centres undefined), the AC50 was 7.99 µM.

For `COc1ccc(-n2c(=S)[nH]c3cc(C(=O)Nc4ccccc4OC)ccc3c2=O)cc1`, the AC50 is 8.24 µM.

As for `Clc1ccc2nnnc(-c3ccccc3)c2c1`, the half-maximal activity concentration (AC50) is 7.48 µM.

`CCCCC(=O)NC(c1ccccc1Cl)c1ccc2cccnc2c1O` (centres undefined): the half-maximal activity concentration (AC50) is 2.09 µM.

For the compound `Cc1ccccc1CNc1ccc(C(CC(N)=O)NC(=O)c2ccc(Br)cc2)cc1[N+](=O)[O-]` (centres undefined), the concentration at half-maximal activity (AC50) is 15.7 µM.

As to `Cc1cc(C)c(CN2CCN(C(=O)Cn3cnc4c(OCc5ccccc5)ncnc43)CC2)c(C)c1`, the AC50 is 6.91 µM.

With `C#CCn1c(=NC(=O)c2ccc(S(=O)(=O)N3CCc4ccccc4C3)cc2)sc2cc(S(N)(=O)=O)ccc21`, the AC50 was 3.64 µM.

As for `Cc1ccc(C)c(N2CCN(C(=O)CCCOc3cc(=O)n(C)c4ccccc34)CC2)c1`, the AC50 is 2.7 µM.

Regarding `Cc1ccc2oc(-c3ccc(NC(=O)c4cccnc4)cc3)nc2c1`, the AC50 was 19.1 µM.

With `CCc1ccc2[nH]c3nc(N/N=C/c4ccc(O)cc4O)nnc3c2c1`, the AC50 was 21.2 µM.

Turning to `COc1ccc(Nc2nc(N3CCCCC3)c3ccccc3n2)cc1`, the AC50 is 12 µM.
